From PubChem BioAssay AID1996 come the findings set out here.

Values after ≈ are worked out from the molar mass of the structure shown.

The conditions of this series: buffer; pH 7.4; 200.0 µM.
Regarding `CC(C)CCN1CCN(Cc2ccoc2)CC1CCO` (centres undefined), the solubility (kinetic) was 29.6 µg/mL (≈ 106 µM). As for `O=C(NC1CCN(Cc2ccccc2)CC1)c1ccccc1`, the figure is more than 44.2 µg/mL. As for `CC1(C)Cc2nc3oc4c(SCC(N)=O)ncnc4c3cc2CO1`, the figure is 17.8 µg/mL (≈ 51.7 µM). With `O=c1ccccn1CCOc1ccc(Cl)cc1`, the kinetic solubility is more than 37.5 µg/mL.

`CCc1ccccc1OCCCN1CCCC1.O=C(O)C(=O)O` returned a solubility (kinetic) of 43.9 µg/mL. As for `CCn1ccnc1CN(C)Cc1nc(-c2ccccc2)no1`, the figure is 31.7 µg/mL (≈ 107 µM); as for `Cc1cc(C)n2ncc(C(=O)O)c2n1`, more than 28.7 µg/mL; as for `Cn1cc([N+](=O)[O-])c(C(=O)NCc2ccco2)n1`, more than 37.5 µg/mL. As for `COc1ccc(NC(=O)c2cc3ccccc3o2)cn1`, the figure is 3.8 µg/mL (≈ 14.2 µM); as for `CC1CC(C)CN(S(=O)(=O)c2ccc3oc(=O)ccc3c2)C1` (centres undefined), 14 µg/mL (≈ 43.6 µM); as for `O=C(COC(=O)c1ccc(Cl)c(Cl)c1)NC1CCCC1`, 2 µg/mL (≈ 6.33 µM). `COC(=O)c1ccc(Nc2ncnc3sccc23)cc1` showed a kinetic solubility of 1.8 µg/mL (≈ 6.31 µM). As for `COc1ccc(Nc2cc(Nc3ccc(OC)cc3)ncn2)cc1`, the figure is less than 0.2 µg/mL. On to `S=C(NCCCN1CCOCC1)NC1CC1`, for which the kinetic solubility is more than 36.5 µg/mL.

Consider `CS(=O)(=O)Nc1ccc(S(=O)(=O)N2CCCC2)cc1`, for which the solubility (kinetic) is more than 45.7 µg/mL. Turning to `CCOC(=O)c1sc(NC(=O)CC(C)c2ccccc2)nc1C` (centres undefined), the kinetic solubility is less than 0.4 µg/mL.

With `Cc1c(O)nc2ccccn2c1=O`, the solubility (kinetic) is more than 26.4 µg/mL. As for `CC(=O)c1cccc(NC(=O)c2nc(-c3ccccc3)oc2C)c1`, the figure is 12.1 µg/mL (≈ 37.8 µM); as for `N#Cc1nc(-c2ccc(Cl)cc2)oc1NCC1CCCO1` (centres undefined), 2.5 µg/mL (≈ 8.23 µM); as for `CC1(C)Cc2c(C#N)c(SCCO)nc(N3CCOCC3)c2CO1`, more than 52.4 µg/mL. As for `Brc1c(-c2ccc3c(c2)OCO3)nc2ncccn12`, the figure is 38.8 µg/mL (≈ 122 µM); as for `CCOc1ccc(N2C(=O)CC(Sc3nc(O)c(CC)c(=O)[nH]3)C2=O)cc1` (centres undefined), more than 58.4 µg/mL; as for `COC(=O)c1ccc(COc2cccnc2[N+](=O)[O-])cc1`, 4.2 µg/mL (≈ 14.6 µM). As for `Cc1ccc(C(=O)OCC(=O)c2ccc[nH]2)s1`, the solubility (kinetic) is more than 37.4 µg/mL. As for `O=C(CSc1ccc(F)cc1)Nc1ccc(C2SCCS2)cc1`, the figure is less than 0.8 µg/mL; as for `N#CC1(CCCN2CCCCC2)c2ccccc2CCc2ccccc21.O=C(O)C(=O)O`, more than 65.2 µg/mL; as for `COc1ccc(CCC(=O)OCC(=O)NCc2ccccc2)cc1`, more than 49.1 µg/mL. In turn, `Cn1cnc([N+](=O)[O-])c1Sc1nc2ccccc2[nH]1` registered a solubility (kinetic) of 5.1 µg/mL (≈ 18.5 µM).

With `CC(=O)Nc1ccc(SCC(=O)Nc2ccc(Cl)cn2)cc1`, the solubility (kinetic) is 9.6 µg/mL (≈ 28.6 µM). `CCc1ccc(NC(=O)Nc2cnccn2)cc1` came in with a kinetic solubility of 9.9 µg/mL (≈ 40.9 µM). Regarding `Nc1nc(COc2ccc(F)cc2Cl)nc(N2CCCCC2)n1`, the kinetic solubility is 3.4 µg/mL (≈ 10.1 µM). As for `COC(=O)c1cccc(NC(=O)Nc2ccc(Cl)cc2)c1`, the figure is less than 0.3 µg/mL; as for `Clc1ccc(OCCN2CCOCC2)cc1`, 28.7 µg/mL (≈ 119 µM). On to `CN(C)C(=O)Oc1ccc(NC(=O)N2CCOCC2)cc1`, for which the solubility (kinetic) was found to be 43.9 µg/mL (≈ 150 µM). As for `COc1cc(S(=O)(=O)NCc2ccncc2)c(OC)cc1C`, the figure is more than 48.4 µg/mL; as for `Cc1cccc(CC(=O)Nc2cccnc2)c1`, 31 µg/mL (≈ 137 µM). Turning to `COC(=O)CCC(=O)Nc1nccs1`, the kinetic solubility is more than 32.1 µg/mL. `O=C1/C(=C\c2ccc(O)c(O)c2)SC(=S)N1Cc1ccccc1` gave a kinetic solubility of 4 µg/mL (≈ 11.6 µM).

Take `COc1ccc(NC(=O)CCCC2CCCCC2)c(OC)c1`: the solubility (kinetic) was less than 0.7 µg/mL. Compound `CCOc1ccccc1NS(=O)(=O)c1ccc2oc(=O)ccc2c1` registered a solubility (kinetic) of 43.6 µg/mL (≈ 126 µM). As for `O=C(Nc1ccc(CN2CCS(=O)(=O)CC2)cc1)c1ccccc1`, the figure is 31.4 µg/mL (≈ 91.2 µM); as for `O=C1NCCN/C1=C\C(=O)c1ccc(Br)cc1`, 17.8 µg/mL (≈ 60.3 µM). Compound `COc1ccc(OC)c(N2C(=O)CC(=O)NC2=O)c1` had a kinetic solubility of more than 39.6 µg/mL. In the case of `CCC[C@@H]1C[C@@H](C(=O)N[C@@H]([C@H]2O[C@H](SC)[C@H](O)[C@@H](O)[C@@H]2O)[C@@H](C)O)N(C)C1.Cl`, the solubility (kinetic) is more than 66.5 µg/mL. As for `Cc1ccc(N2CC(=O)Nc3c(oc4nc(-c5ccccc5)cc(C)c34)C2=O)cc1`, the figure is less than 0.3 µg/mL; as for `CC1(C)Cc2nc(-c3ccccc3)nc(SCC(=O)N3CCCC3)c2CO1`, 22.3 µg/mL (≈ 58.1 µM). As for `CCN(Cc1ccccc1)C(=O)CS(=O)(=O)c1ccccc1`, the figure is more than 47.6 µg/mL; as for `CCOc1ccc(S(=O)(=O)/N=C(/Nc2ccc(C)c(S(=O)(=O)N3CCOCC3)c2)c2ccccc2)cc1`, 7.9 µg/mL (≈ 14.5 µM). In the case of `COc1cc(C(=O)OC(C)C(=O)N2CCCC2)cc2c1OCCO2` (centres undefined), the solubility (kinetic) is more than 50.3 µg/mL. As for `Cc1cccc(C(=O)NCC(=O)N2CCC2)c1`, the figure is more than 34.8 µg/mL. `COc1ccccc1-n1cnc2cc(NCc3ccccc3O)ccc21` showed a kinetic solubility of 12.6 µg/mL (≈ 36.5 µM).

As to `CSc1nc([O-])cc(=O)n1-c1ccc(F)cc1.[K+]`, the kinetic solubility was more than 43.6 µg/mL.

The compound `CC(C(=O)OCC(=O)NC1CCCC1)N1C(=O)c2ccccc2C1=O` (centres undefined) had a kinetic solubility of 50 µg/mL (≈ 145 µM). As for `CC(C)c1ccc(Nc2nc(Cl)nc(NCCO)n2)cc1`, the figure is 2.7 µg/mL (≈ 8.77 µM). With `CC(=O)NC1(c2ccccc2)CCN(CC(=O)N2CCC(C)CC2)CC1`, the solubility (kinetic) is more than 53.6 µg/mL.

`COc1ccccc1C(=O)Nc1nsc(-c2ccccc2)n1` had a solubility (kinetic) of 8.8 µg/mL (≈ 28.3 µM). As for `Cc1ccc(CNC(=O)COC(=O)C2CC2)cc1`, the figure is more than 37.1 µg/mL; as for `COC(=O)c1ccc(NC(=O)CCCN2C(=O)NC(C)(C)C2=O)cc1`, more than 52.1 µg/mL. As for `Fc1ccc(-c2noc(-c3ccc4c(c3)CCO4)n2)cc1`, the figure is less than 0.3 µg/mL; as for `CCNc1nc(NCC)nc(NC(N)=S)n1`, 9 µg/mL (≈ 37.3 µM); as for `COc1ccc(NC(=O)CCS(=O)(=O)c2ccc(Cl)cc2)cc1`, 18.4 µg/mL (≈ 52 µM).

`Cn1c(=O)oc2cc(S(=O)(=O)Nc3ccc(Cl)cc3)ccc21`: the kinetic solubility was 4.1 µg/mL (≈ 12.1 µM). As for `CN(C)c1ccc(CNCC2CCCO2)cc1.Cl` (centres undefined), the figure is more than 40.6 µg/mL; as for `COc1ccc(/C=C2\C(=O)ON=C2c2ccccc2)cc1OC`, 45.7 µg/mL (≈ 148 µM).

For `Oc1ccc(Cl)cc1C=Nc1ccc(Br)cc1`, the kinetic solubility was found to be 21.4 µg/mL (≈ 68.9 µM). In the case of `NS(=O)(=O)c1ccc(NC(=O)CN2CCc3ccccc32)cc1`, the kinetic solubility is 23.6 µg/mL (≈ 71.2 µM). As for `COc1ccccc1N1C(=O)c2cccc3cccc(c23)C1=O`, the figure is less than 0.6 µg/mL; as for `COc1ccc(NC(=O)CN(C)C(=O)CCC2CCCC2)cc1`, 45.5 µg/mL (≈ 143 µM); as for `O=S(=O)(c1cccs1)N1CCN(c2ccc(F)cc2)CC1`, 9.6 µg/mL (≈ 29.4 µM).

The compound `CCOc1ccc(C2NC(=O)c3ccccc3O2)cc1OCC` (centres undefined) showed a kinetic solubility of 13.8 µg/mL (≈ 44 µM). As for `CC(C)C(=O)Nc1ccc([N+](=O)[O-])c(C(F)(F)F)c1`, the figure is more than 41.4 µg/mL; as for `COc1cccc(NC(=O)CN2C(=O)NC3(CCCCCC3)C2=O)c1`, more than 51.8 µg/mL; as for `CCCCN1C(=O)CC(Sc2ncccc2C(=O)O)C1=O` (centres undefined), 39.9 µg/mL (≈ 129 µM). As for `CCN(CC)c1ccc(C(=O)OCC(=O)N2CCCC2)cc1`, the figure is more than 45.7 µg/mL; as for `O=S(=O)(c1ccc(F)c(F)c1)N1CCN(c2ccccn2)CC1`, 1.5 µg/mL (≈ 4.42 µM); as for `N#Cc1cnn(-c2ccc(F)cc2)c1N`, more than 30.3 µg/mL.

Consider `COc1ccc(C(=O)OCC(=O)NC2CCCC2)c(OC)c1`, for which the kinetic solubility was 44.8 µg/mL (≈ 146 µM). The compound `CCc1ccccc1Nc1ncnc2ccccc12.Cl` registered a kinetic solubility of more than 42.9 µg/mL. As for `Cc1onc(-c2ccccc2)c1C(=O)NCc1ccc(Cl)cc1`, the figure is 1.3 µg/mL (≈ 3.98 µM); as for `CC(Sc1nnc(-c2ccccc2F)n1C1CC1)C(N)=O` (centres undefined), more than 46 µg/mL; as for `O=C(CCC(=O)Nc1cccc(C(F)(F)F)c1)NCC1CCCO1` (centres undefined), more than 51.6 µg/mL. As for `O=C(OCC(=O)N1CCOCC1)c1ccc(Cl)c(S(=O)(=O)N2CCc3ccccc32)c1`, the figure is 32.4 µg/mL (≈ 69.7 µM). As for `CS(=O)(=O)N(CC(=O)NCC1CCCO1)c1cccc(Cl)c1` (centres undefined), the figure is more than 52 µg/mL. The compound `Nc1nccc(-c2ccc(-n3cccc3)cc2)n1` returned a kinetic solubility of less than 0.1 µg/mL. As for `CCOC(=O)C1(C)Oc2ccc(S(=O)(=O)CC)cc2NC1=O` (centres undefined), the figure is 42.7 µg/mL (≈ 130 µM); as for `Cc1ccnc(NC(=O)c2cccc(NC(=O)c3ccccc3C)c2)c1`, 2.1 µg/mL (≈ 6.08 µM). The compound `CC(=O)N(Cc1nc2sc(C)c(C)c2c(=O)[nH]1)C1CCCC1` showed a kinetic solubility of 19.5 µg/mL (≈ 61 µM). As for `O=C1CSC(c2cccc([N+](=O)[O-])c2)N1CCc1ccccc1` (centres undefined), the figure is 25.8 µg/mL (≈ 78.6 µM); as for `Cc1ccc(OCC(=O)Nc2ccc3oc(=O)ccc3c2)cc1C`, less than 0.7 µg/mL.

As for `COc1ccc(CCC2CCNCC2)cc1.Cl`, the kinetic solubility is more than 38.4 µg/mL. `CCC(Oc1ccc(F)cc1)C(=O)N1CCCCCCC1` (centres undefined) yielded a kinetic solubility of 34.8 µg/mL (≈ 119 µM). As for `CCN(CC)C(=O)COC(=O)C1=NN(c2cc(C)ccc2C)C(=O)CC1`, the figure is more than 53.9 µg/mL; as for `CN(c1ccccc1)c1nc(N)c([N+](=O)[O-])c(NCCO)n1`, 42.9 µg/mL (≈ 141 µM).

For `O=S(=O)(Nc1ccc(O)c2ccccc12)c1cccs1`, the solubility (kinetic) was 24.9 µg/mL (≈ 81.5 µM). As for `COc1ccc(CCNC(=O)COc2ccc(C)nc2[N+](=O)[O-])cc1`, the figure is more than 51.8 µg/mL. Turning to `COc1ccccc1CNC(=O)c1sccc1-c1ccccc1`, the kinetic solubility turned out to be 14.4 µg/mL (≈ 44.5 µM).

With `CCc1nc2ccccc2n1CC(O)COCC1CC=CCC1` (centres undefined), the kinetic solubility is more than 47.2 µg/mL. As for `O=C(NCc1cccc(C(F)(F)F)c1)c1ccc(=O)[nH]c1`, the solubility (kinetic) is more than 44.4 µg/mL.

`Cc1cccc(C(=O)OCC(=O)N2CCCCCC2)c1C` displayed a kinetic solubility of more than 43.4 µg/mL. As to `S=c1nc(COc2ccccc2)[nH]c2ccccc12`, the kinetic solubility was 8 µg/mL (≈ 29.8 µM). Regarding `COc1ccc(NC(=O)N2CCCCCC2)c(OC)c1`, the solubility (kinetic) was more than 41.8 µg/mL. As for `Cn1cc(S(=O)(=O)Nc2ccc(OC(F)(F)F)cc2)c(=O)n(C)c1=O`, the figure is more than 56.9 µg/mL. Compound `COc1ccc(NC(=O)COC(=O)CC2CCCCC2)cc1` displayed a kinetic solubility of more than 45.8 µg/mL. The compound `O=C(CSc1nnc2ccccn12)NNC(=O)c1cccc(Cl)c1` came in with a solubility (kinetic) of more than 54.3 µg/mL.
